# Values joined by “and” are separate entries in the source; they are usually repeats but may differ in a detail not shown here. Identical values can stand only once. Toxic doses and inconclusive results are not listed.
# Tested on: P388 leukemia ip, CD2F1 mice, survival T/C
# Assay: NCI In Vivo Anticancer Drug Screen. Data for tumor model P388 Leukemia (intraperitoneal) in CD2F1 (CDF1) mice
# Settings: endpoint: median survival time, higher = longer survival
# How it was run: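 Mice carrying the transplanted tumor received test compound or vehicle. Survival was recorded in each group, and the value is the treated-group measurement divided by that of the vehicle-treated control group.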
# [1] = dose: 50.0 mg/kg/injection, schedule: Q01DX005 (ip), vehicle: saline
# [2] = dose: 100.0 mg/kg/injection, schedule: Q01DX005 (ip), vehicle: saline
# [3] = dose: 60.0 mg/kg/injection, schedule: Q01DX005 (ip), vehicle: saline with Tween-80
# [4] = dose: 120.0 mg/kg/injection, schedule: Q01DX005 (ip), vehicle: saline with Tween-80
# [5] = dose: 50.0 mg/kg/injection, schedule: Q01DX005 (ip), vehicle: Klucel (hydroxypropylcellulose) (HPC)
# [6] = dose: 100.0 mg/kg/injection, schedule: Q01DX005 (ip), vehicle: Klucel (hydroxypropylcellulose) (HPC)
# [7] = dose: 50.0 mg/kg/injection, schedule: Q01DX009 (ip), vehicle: Klucel (hydroxypropylcellulose) (HPC)
# [8] = dose: 100.0 mg/kg/injection, schedule: Q01DX009 (ip), vehicle: Klucel (hydroxypropylcellulose) (HPC)
# [9] = dose: 200.0 mg/kg/injection, schedule: Q01DX009 (ip), vehicle: Klucel (hydroxypropylcellulose) (HPC)
# [10] = dose: 50.0 mg/kg/injection, schedule: Q01DX009 (ip), vehicle: saline with Tween-80
# [11] = dose: 100.0 mg/kg/injection, schedule: Q01DX001 (ip), vehicle: saline with Tween-80
# [12] = dose: 200.0 mg/kg/injection, schedule: Q01DX001 (ip), vehicle: saline with Tween-80
# [13] = dose: 400.0 mg/kg/injection, schedule: Q01DX001 (ip), vehicle: saline with Tween-80
# [14] = dose: 6.25 mg/kg/injection, schedule: Q04DX003 (ip), vehicle: saline
# [15] = dose: 12.5 mg/kg/injection, schedule: Q04DX003 (ip), vehicle: saline
# [16] = dose: 25.0 mg/kg/injection, schedule: Q04DX003 (ip), vehicle: saline
# [17] = dose: 12.5 mg/kg/injection, schedule: Q01DX009 (ip), vehicle: saline with Tween-80
# [18] = dose: 25.0 mg/kg/injection, schedule: Q01DX009 (ip), vehicle: saline with Tween-80
# [19] = dose: 240.0 mg/kg/injection, schedule: Q01DX005 (ip), vehicle: saline with Tween-80
smiles,measurement,setting,value
O=C(O)c1cc(N=Nc2ccc(-c3ccc(N=Nc4c(S(=O)(=O)O)cc5cc(Nc6ccccc6)ccc5c4O)cc3)cc2)ccc1O,T/C,[1],107 % of control
same,T/C,[2],114 % of control
same,T/C,"dose: 200.0 mg/kg/injection, schedule: Q01DX005 (ip), vehicle: saline",112 % of control
COc1ccc2n[se]nc2c1,T/C,[3],93 % of control
same,T/C,[4],93 % of control
NC(=O)/C(N=Nc1ccccc1C(=O)O)=N\Nc1ccccc1C(=O)O,T/C,[5],94 % of control
same,T/C,[6],95 % of control
same,T/C,"dose: 200.0 mg/kg/injection, schedule: Q01DX005 (ip), vehicle: Klucel (hydroxypropylcellulose) (HPC)",103 % of control
CN1CCC(c2ccccc2)C(OC(=O)c2ccccc2)C1 (stereo not given),T/C,"dose: 25.0 mg/kg/injection, schedule: Q01DX005 (ip), vehicle: saline",110 % of control
same,T/C,[1],111 % of control
same,T/C,[2],100 % of control
COc1cc2c(cc1OC)C1CC(=O)C(Cc3ccccc3)CN1CC2 (stereo not given),T/C,[7],101 % of control
same,T/C,[8],87 % of control and 95 % of control
same,T/C,[9],95 % of control and 104 % of control
CCSCCNC(=O)[C@@]1(O)[C@H](O)[C@]2(CC)C=CCN3CC[C@@]4(c5cc([C@@]6(OC(C)=O)C[C@H]7C=C(CC)CN(CCc8c6[nH]c6ccccc86)C7)c(OC)cc5N(C)[C@@H]14)[C@@H]32,T/C,"dose: 0.5 mg/kg/injection, schedule: Q01DX001 (ip), vehicle: water",118 % of control
same,T/C,"dose: 1.0 mg/kg/injection, schedule: Q01DX001 (ip), vehicle: water",118 % of control
same,T/C,"dose: 4.0 mg/kg/injection, schedule: Q01DX001 (ip), vehicle: water",165 % of control
same,T/C,"dose: 8.0 mg/kg/injection, schedule: Q01DX001 (ip), vehicle: water",174 % of control
NS(=O)(=O)c1c[n+]([O-])ccc1Cl,T/C,[10],100 % of control
same,T/C,"dose: 100.0 mg/kg/injection, schedule: Q01DX009 (ip), vehicle: saline with Tween-80",100 % of control
same,T/C,"dose: 200.0 mg/kg/injection, schedule: Q01DX009 (ip), vehicle: saline with Tween-80",100 % of control
O=C(Nc1ccc(NC2=NCCN2)cc1)c1cccc(C(=O)Nc2ccc(NC3=NCCN3)cc2)c1,T/C,"dose: 5.0 mg/kg/injection, schedule: Q01DX009 (ip), vehicle: saline with Tween-80",109 % of control
same,T/C,"dose: 30.0 mg/kg/injection, schedule: Q01DX009 (ip), vehicle: saline with Tween-80",100 % of control
Clc1nc2ccccc2[nH]1,T/C,"dose: 25.0 mg/kg/injection, schedule: Q01DX009 (ip), vehicle: saline",101 % of control
same,T/C,"dose: 50.0 mg/kg/injection, schedule: Q01DX009 (ip), vehicle: saline",99 % of control
same,T/C,"dose: 100.0 mg/kg/injection, schedule: Q01DX009 (ip), vehicle: saline",95 % of control
same,T/C,"dose: 200.0 mg/kg/injection, schedule: Q01DX009 (ip), vehicle: saline",98 % of control
C=Cc1cc[n+](CC(=O)c2ccccc2)cc1,T/C,"dose: 3.12 mg/kg/injection, schedule: Q01DX009 (ip), vehicle: saline",90 % of control
same,T/C,"dose: 6.25 mg/kg/injection, schedule: Q01DX009 (ip), vehicle: saline",90 % of control
same,T/C,"dose: 12.5 mg/kg/injection, schedule: Q01DX009 (ip), vehicle: saline",103 % of control and 90 % of control
CN(C)C1CC2C=CC1C1C=CC21 (stereo not given),T/C,"dose: 3.13 mg/kg/injection, schedule: Q01DX009 (ip), vehicle: water",100 % of control
same,T/C,"dose: 6.25 mg/kg/injection, schedule: Q01DX009 (ip), vehicle: water",99 % of control
same,T/C,"dose: 12.5 mg/kg/injection, schedule: Q01DX009 (ip), vehicle: water",100 % of control
same,T/C,"dose: 25.0 mg/kg/injection, schedule: Q01DX009 (ip), vehicle: water",99 % of control
same,T/C,"dose: 50.0 mg/kg/injection, schedule: Q01DX009 (ip), vehicle: water",98 % of control
Cc1ccc(CNc2ccc(C)c(Cl)c2)cc1,T/C,"dose: 100.0 mg/kg/injection, schedule: Q04DX003 (ip), vehicle: other",100 % of control
same,T/C,"dose: 200.0 mg/kg/injection, schedule: Q04DX003 (ip), vehicle: other",100 % of control
same,T/C,"dose: 400.0 mg/kg/injection, schedule: Q04DX003 (ip), vehicle: other",100 % of control
Cc1ccc(NC(=S)NC2C(=O)Nc3ccccc32)cc1 (stereo not given),T/C,[11],92 % of control
same,T/C,[12],93 % of control
same,T/C,[13],87 % of control
CC(C)(C)OCC(NC(=O)OC(C)(C)C)C(=O)O (stereo not given),T/C,"dose: 50.0 mg/kg/injection, schedule: Q01DX005 (ip), vehicle: saline with Tween-80",100 % of control
same,T/C,"dose: 100.0 mg/kg/injection, schedule: Q01DX005 (ip), vehicle: saline with Tween-80",103 % of control
same,T/C,"dose: 200.0 mg/kg/injection, schedule: Q01DX005 (ip), vehicle: saline with Tween-80",97 % of control
O=C(O)C1C2C=CC(O2)C1C(=O)Nn1cccc1 (stereo not given),T/C,[7],99 % of control
same,T/C,[8],94 % of control
same,T/C,[9],95 % of control
CCN1CCC(C2(C(=O)OC)c3ccccc3-c3ccccc32)C1 (stereo not given),T/C,[14],106 % of control
same,T/C,[15],108 % of control
same,T/C,[16],103 % of control
same,T/C,"dose: 100.0 mg/kg/injection, schedule: Q04DX003 (ip), vehicle: saline",104 % of control
COc1cc(CC2C(CO)OC(=O)C2C(O)c2ccc3c(c2)OCO3)cc(OC)c1OC (stereo not given),T/C,"dose: 5.0 mg/kg/injection, schedule: Q04DX002 (ip), vehicle: saline with Tween-80",104 % of control
same,T/C,"dose: 10.0 mg/kg/injection, schedule: Q04DX002 (ip), vehicle: saline with Tween-80",104 % of control
same,T/C,"dose: 20.0 mg/kg/injection, schedule: Q04DX002 (ip), vehicle: saline with Tween-80",102 % of control
NC(=O)NCCSC1(SCCNC(N)=O)CCCCC1,T/C,[7],107 % of control
same,T/C,[8],103 % of control
same,T/C,[9],100 % of control
same,T/C,"dose: 400.0 mg/kg/injection, schedule: Q01DX009 (ip), vehicle: Klucel (hydroxypropylcellulose) (HPC)",99 % of control
CC1(C)CC(Nc2ccccc2)=CC(N2CCOCC2)=N1,T/C,[5],103 % of control
same,T/C,[6],100 % of control
C=C(C)C(=NC)NC(C)(C)C,T/C,[5],100 % of control
same,T/C,[6],102 % of control
Cc1cc(=O)oc2c(C)c3occc(=O)c3cc12,T/C,[11],99 % of control
same,T/C,[12],90 % of control
same,T/C,[13],87 % of control
CC1CCC2(OC2(C)C)C(=O)C1 (stereo not given),T/C,"dose: 100.0 mg/kg/injection, schedule: Q04DX002 (ip), vehicle: saline",103 % of control
same,T/C,"dose: 200.0 mg/kg/injection, schedule: Q04DX002 (ip), vehicle: saline",103 % of control
same,T/C,"dose: 400.0 mg/kg/injection, schedule: Q04DX002 (ip), vehicle: saline",104 % of control
Cc1ccc(NC(=O)N2c3ccccc3SC2c2ccco2)c(C)c1 (stereo not given),T/C,[17],92 % of control
same,T/C,[18],103 % of control
same,T/C,[10],86 % of control and 92 % of control
COC(=O)/C=C/C(=O)NC(N)=O,T/C,[14],100 % of control
same,T/C,[15],109 % of control
same,T/C,[16],100 % of control
OC(CC1CCCCN1)c1cc(C(F)(F)F)nc2c(C(F)(F)F)cccc12 (stereo not given),T/C,[17],101 % of control
same,T/C,[18],100 % of control
same,T/C,[10],108 % of control
Nc1ccccc1C(=O)/C=C/c1ccccc1,T/C,[3],100 % of control
same,T/C,[4],100 % of control
same,T/C,[19],100 % of control
S=C(SCc1c(Cl)cccc1Cl)N1CCSCC1,T/C,[3],102 % of control
same,T/C,[4],93 % of control
same,T/C,[19],96 % of control
CC(=O)[C@]1(O)Cc2c(O)c3c(c(O)c2[C@@H](OC2CC(N)C(O)C(C)O2)C1)C(=O)c1c(OCc2ccccc2)cccc1C3=O (stereo not given in full),T/C,"dose: 12.5 mg/kg/injection, schedule: Q04DX003 (ip), vehicle: distilled water + Tween-80",101 % of control
same,T/C,"dose: 100.0 mg/kg/injection, schedule: Q04DX003 (ip), vehicle: distilled water + Tween-80",91 % of control
